Results taken from publication PMC4454744 (Analytical biochemistry, 2015).
Read-outs that look alike come from different tables or passages of the source.

Columns and labels:
[1] = test system: hepatitis C virus NS3 protease; conditions: jump dilution; cited from earlier work
[2] = target: T1, M. tuberculosis FabI (InhA) (Mycobacterium tuberculosis, UniProt P9WGR1); conditions: progress curve analysis; bound to InhA; 20 °C
[3] = target: T1, M. tuberculosis FabI (InhA)
[4] = target: T2, R40Q/K41N/S44L saFabI variant (Staphylococcus aureus, UniProt Q6GI75, K41N/R40Q/S44L); assay: [32P]-NAD+ direct dissociation method, saFabI; assay type: binding; conditions: saFabI system
T2 sequence (Q6GI75 1-256 R40Q/K41N/S44L): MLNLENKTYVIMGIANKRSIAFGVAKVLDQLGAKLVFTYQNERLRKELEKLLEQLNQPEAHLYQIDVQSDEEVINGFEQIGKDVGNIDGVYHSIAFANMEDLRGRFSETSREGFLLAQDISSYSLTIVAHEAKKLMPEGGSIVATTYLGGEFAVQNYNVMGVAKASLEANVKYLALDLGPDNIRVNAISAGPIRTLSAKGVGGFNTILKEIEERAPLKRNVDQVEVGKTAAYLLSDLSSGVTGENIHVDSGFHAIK

[5] = test system: saFabI; assay: Progress curve analysis, saFabI; assay type: biochemical, Staphylococcus aureus; conditions: for residence time tR: progress curve analysis, saFabI system, 20 °C

| Compound | residence time tR [4] | residence time tR [5] | further results |
| --- | --- | --- | --- |
| CC(C)(C)OC(=O)N[C@H]1CCCCC/C=C\[C@@H]2C[C@@]2(C(=O)NS(=O)(=O)C2CC2)NC(=O)[C@@H]2C[C@@H](OC(=O)N3Cc4cccc(F)c4C3)CN2C1=O [ITMN-191] | – | – | recovery of enzyme activity [1]: partial recovery of enzyme activity |
| CCCCCCc1ccc(Oc2ccccc2Cl)c(O)c1 [PT91] | – | – | residence time tR [2]: 102.1 ± 11.4 min; residence time tR [3]: 148.4 ± 13.4 min |
| CCCCCCc1ccc(Oc2ccccc2C#N)c(O)c1 [PT119] | 833.3 min | 120.3 min | difference in koff ([5]; progress curve analysis vs direct dissociation method, inhibition of saFabI): 8 fold |
| CCCCCCc1ccc(Oc2ccccc2)c(O)c1 [PT04] | 461.5 min | 97 min | – |
